pIC50: −log10 of the molar value.
Columns and labels:
MM.1S myeloma cells [1] = assay: Cell proliferation inhibition test by CTG (CellTiter-Glo) assay; type: cell-based; conditions: Homo sapiens, MM1.S, 120 hours drug treatment, 4,000 cells/well, 384-well plate, read-out: MM.2S IC50
Description: Experimental Method for Cell Proliferation Inhibition Test by CTG Assay:
The proliferation inhibitory activity of the compounds in the MM.1S myeloma cell model was determined by CellTiter-Glo (CTG) Luminescent Cell Viability Assay (Promega). MM.1S cells (ATCC, Cat #CRL-2974) at exponential phase were resuspended in RPMI-1640 (Gibco, Cat #11875-093)+10% FBS+1% penicillin/streptomycin+2 mM Glutamax medium and counted using an automated cell counter (ViCellXR). According to the optimized cell plating density in the pre-experiments, 40 μl of cell suspension at a density of 100,000 cells/ml was plated in the corresponding wells of a 384-well plate (4,000 cells/well) to ensure that cells in the control group were at linear growth phase within the five-day experimental period. The plated 384-well plate was cultured in a 37° C., 5% CO2 incubator for 24 hours. On the day of administration, each compound was formulated into 10 mM stock solution with DMSO (Sigma, Cat #276855-1L) and the stock solution was further diluted with DMSO to 20 μM and 20 nM working solutions. Drug treatment of MM.1S cells started at a concentration of up to 100 nM and the drug was serial diluted 4-fold with 10 points, with three replicate wells. Nanoliter volumes of compound solutions were added to the corresponding wells of the 384-well plate according to the needed concentration in a non-contact spraying manner by an HPD300 microscale automated dispenser (Tecan). The final concentration of DMSO was 0.5%. After drug addition, the 384-well plate was cultured in a 37° C., 5% CO2 incubator for 120 hours. After five days of drug treatment, 25 μl of CTG reagent (Promega, Cat #G7573) was added to each well, and the plate was shaken on a plate shaker for 10 minutes to ensure that the cells were fully lysed, and then left to stand at room temperature for 10 minutes to ensure a sufficient reaction of CTG with the substrate and the generation of a stable luminescent signal. The signal is proportional to the amount of ATP in the cell lysate, i.e., the number of metabolically active cells. Chemiluminescence of the cells in the plate was detected by an EnSpire instrument. The reading of the cells at Day 0 was used as a control for cells at growth starting point and the reading of cells with 0.5% DMSO at Day 5 was used as a control for cells under growth. Cell proliferation inhibition curve was plotted using XLFit software and the IC50 value was calculated. Experiment results can be seen in Table 2.

MM.1S myeloma cells [2] = assay: Cell proliferation inhibition test by MTS assay; type: cell-based; conditions: Homo sapiens, MM1.S, 72 hours drug treatment, 15,000 cells/well, 96-well plate
Description: Experimental Method for Cell Proliferation Inhibition Test by MTS Assay:
Proliferating MM.1S myeloma cells (ATCC, Cat #CRL-2974) were resuspended in RPMI-640 medium (Gibco, Cat #A10491-01) and counted using an automated cell counter. The cell suspension was diluted to the needed density and 100 μl (15,000 cells) of the cell suspension was plated per well in a 96-well plate. The plate was cultured in a 37° C., 5% CO2 incubator for 24 hours. On the day of administration, each compound was formulated into 20 mM stock solution with DMSO (Sigma, Cat #D2650), diluted with a medium to the needed concentration, and then added to the corresponding wells for the cell proliferation inhibition test with a drug of 4-fold serial dilution with 10 points. The final concentration of DMSO was 0.5%. After drug addition, the 96-well plate was cultured in a 37° C., 5% CO2 incubator for 72 hours. Then, 20 μl of MTS (Promega, Cat #G3581) was added to each well and the plate was cultured for 2 hours in a 37° C., 5% CO2 incubator, and then the absorbance at 490 nm of each well was recorded using an Ensight instrument. The reading of the cells at Day 0 was used as a negative control and the reading of cells with 0.5% DMSO at Day-3 was used as a positive control. Cell proliferation inhibition curve was plotted using GraphPad Prism 5 software and the IC50 value was calculated. Experiment results can be seen in Table 1.

pIC50 (MM.1S myeloma cells [1])	pIC50 (MM.1S myeloma cells [2])	Compound
10.22	–	COc1c(C#N)ccc(N2CCN(Cc3ccc(COc4cccc5c4CN([C@H]4CCC(=O)NC4=O)C5=O)c(F)c3)CC2)c1F [CM-49]
6.92	7.64	Nc1cccc2c1CN(C1CCC(=O)NC1=O)C2=O (stereo not shown) [Control 1, reference compound]

Compound	pIC50 (MM.1S myeloma cells [1])	pIC50 (MM.1S myeloma cells [2])
N#Cc1ccc(N2CCN(Cc3ccc(COc4cccc5c4CN([C@H]4CCC(=O)NC4=O)C5=O)c(F)c3)CC2)c(F)c1Cl [CM-48]	10.44	–

— patent US20230114674A1, “ISOINDOLINE DERIVATIVE, AND PHARMACEUTICAL COMPOSITION AND USE THEREOF” (KANGPU BIOPHARMACEUTICALS, LTD., priority 2020, published 2023)
